Experiment [1] concerns KMS12-BM cells. Nature of the experiment: Antiproliferative activity on KMS12-BM (NIK WT) multiple myeloma cells (CellTiter-Glo). As to conditions: Homo sapiens, KMS-12-BM, 96 h, read-out: KMS-12 Proliferation inhibition (IC50 (nM)). Type of experiment: cell-based, human. In outline:
(§1)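 Viability was read by CellTiter-Glo after 96 hr compound exposure (9-point, 1:3 serial dilutions; 0.3% DMSO final). JJN-3 and KMS12-BM cells were seeded at 15000 and 20000 per well respectively in RPMI 1640/10% FCS; blank-subtracted signals were given as percent of drug-free controls.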
On the technique in general: ATP-based viability assays read luminescence as a measure of living cells.

Experiment [2] relates to JJN-3 cells. Nature of the experiment: Antiproliferative activity on JJN-3 (NIK translocated) multiple myeloma cells (CellTiter-Glo). Type of experiment: cell-based, human. As to conditions: Homo sapiens, JJN-3, 96 h, read-out: JJN-3 Proliferation inhibition (IC50 (nM)). The essentials:
as §1

The subject of experiment [3] is P-IKKα levels in L363 cells. Briefly: Effect of compounds on P-IKKα levels in L363 (NIK translocated multiple myeloma) cells. Type of experiment: cell-based, human. As to conditions: Homo sapiens. As to the method:
Effect of compounds on P-IKKα levels in L363 (NIK translocated multiple myeloma) cells
All compounds tested were dissolved in DMSO and further dilutions were made in culture medium. Final DMSO concentration was 1% (v/v) in cell assays. The human L363 cells (ATCC) were cultured in RPMI 1640 medium supplemented with GlutaMax and 10% fetal calf serum (PAA). Cells were routinely maintained at densities of 0.2×10^6 cells per ml-1×10^6 cells per ml at 37° C. in a humidified 5% CO2 atmosphere. Cells were passaged twice a week splitting back to obtain the low density. Cells were seeded in 96 well plates (Nunc 167008) at 2×10^6 per ml media in a volume of 75 μl per well plus 25 μl 1 μg/ml recombinant human B-cell activating factor (BAFF/BLyS/TNFSF13B). Seeded cells were incubated at 37° C. in a humidified 5% CO2 atmosphere for 24 hr. Drugs and/or solvents were added (20 μl) to a final volume of 120 μl. Following 2 hr treatment plates were removed from the incubator and cell lysis was achieved by the addition of 30 μl 5× lysis buffer followed by shaking on a plate shaker at 4° C. for 10 min. At the end of this incubation lysed cells were centrifuged at 800×g for 20 min at 4° C. and the lysate was assessed for P-IKKα levels by sandwich immuno-assay carried out in anti-rabbit antibody coated Mesoscale plates. Within an experiment, the results for each treatment were the mean of 2 replicate wells. For initial screening purposes, compounds were tested using an 8 point dilution curve (serial 1:3 dilutions). For each experiment, controls (containing MG132 and BAFF but no test drug) and a blank incubation (containing MG132 and BAFF and 10 μM ADS125117, a test concentration known to give full inhibition) were run in parallel. The blank incubation value was subtracted from all control and sample values. To determine the IC50 a sigmoidal curve was fitted to the plot of % inhibition of control P-IKKα levels versus Log10 compound concentration.

The target of experiment [4] is recombinant human NF-kappaB-inducing kinase (NIK/MAP3K14) (Homo sapiens (Human), UniProt Q99558). Briefly: Inhibition of auto-phosphorylation of recombinant human NIK/MAP3K14 activity (AlphaScreen). Type of experiment: biochemical. As to conditions: averaged values over all measurements on all batches. In outline: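 AlphaScreen read-out, using anti-phospho-IKK Ser176/180 antibody, tracked NIK autophosphorylation after 1 h at 25° C. Reactions held 0.2 nM GST-NIK, 25 microM ATP and compound in 1% DMSO, Tris pH 7.5 buffer. IC50 fitted sigmoidally to blank-subtracted inhibition data.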
Sequence of recombinant human NF-kappaB-inducing kinase (NIK/MAP3K14) (Q99558 whole entry): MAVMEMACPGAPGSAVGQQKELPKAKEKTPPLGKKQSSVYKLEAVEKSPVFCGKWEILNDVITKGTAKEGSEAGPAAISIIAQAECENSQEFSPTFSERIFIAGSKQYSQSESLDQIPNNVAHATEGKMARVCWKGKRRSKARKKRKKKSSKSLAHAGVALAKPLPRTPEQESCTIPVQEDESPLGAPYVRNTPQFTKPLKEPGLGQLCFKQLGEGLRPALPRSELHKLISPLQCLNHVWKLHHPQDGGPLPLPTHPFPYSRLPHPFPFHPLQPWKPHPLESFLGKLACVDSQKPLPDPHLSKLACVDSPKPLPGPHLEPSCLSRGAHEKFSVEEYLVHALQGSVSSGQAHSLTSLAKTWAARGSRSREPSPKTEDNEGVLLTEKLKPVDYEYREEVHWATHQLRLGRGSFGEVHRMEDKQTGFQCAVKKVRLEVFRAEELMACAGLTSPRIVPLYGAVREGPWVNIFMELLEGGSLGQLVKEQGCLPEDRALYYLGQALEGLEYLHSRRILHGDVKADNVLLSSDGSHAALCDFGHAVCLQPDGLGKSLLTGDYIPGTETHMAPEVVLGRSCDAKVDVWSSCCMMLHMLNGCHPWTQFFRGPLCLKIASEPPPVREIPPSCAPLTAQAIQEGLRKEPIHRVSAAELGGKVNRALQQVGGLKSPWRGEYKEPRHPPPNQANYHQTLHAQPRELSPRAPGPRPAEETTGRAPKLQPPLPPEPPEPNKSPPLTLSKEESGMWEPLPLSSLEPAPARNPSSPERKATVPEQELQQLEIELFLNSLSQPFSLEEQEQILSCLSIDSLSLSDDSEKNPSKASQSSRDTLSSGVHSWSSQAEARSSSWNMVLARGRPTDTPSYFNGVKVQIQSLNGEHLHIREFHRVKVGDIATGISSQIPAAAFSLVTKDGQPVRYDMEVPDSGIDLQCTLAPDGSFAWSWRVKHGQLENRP
(Bead proximity is the source of the signal in Alpha formats.)

Setting [5] is: KMS12-BM (NIK WT) cells, 96 hr, averaged values.
Where [6] appears, read: JJN-3 (NIK translocated) cells, 96 hr, averaged values.
Where [7] appears, read: L-363, L363 cells, averaged values, read-out: Inhibition of pIKKα_L-363 (IC50 (nM)).

Structures are written as SMILES. Read-outs that look alike come from different tables or passages of the source.

`Cc1cc(Nc2nccc(-c3cc(C#N)c4c(c3)[C@@](C)(CO)CN4)n2)n(CC(=O)N(C)C2CC2)n1` [Compound 89]: the IC50 in experiment [1] (setting [5]) was greater than 10000 nM; in experiment [2] (setting [6]), 427 nM; in experiment [3] (setting [7]) it was roughly 85 nM; in experiment [4], 3.7 nM.

`COCCN1CCC(Cn2nc(C)cc2Nc2nccc(-c3cc(C#N)c4c(c3)[C@@](C)(CO)CN4)n2)CC1` [Compound 155]: the IC50 was greater than 10000 nM in experiment [1] (setting [5]), 59 nM in experiment [2] (setting [6]), 126 nM in experiment [3] (setting [7]) and 9.3 nM in experiment [4].

In the case of `C[C@]1(CO)CNc2c(C#N)cc(-c3ccnc(Nc4cc(C(=O)N5CCCC5)n(C5CCCC5)n4)n3)cc21` [Compound 213], the IC50 in experiment [1] (setting [5]) was greater than 10000 nM; in experiment [2] (setting [6]), 95 nM; in experiment [3] (setting [7]), 27 nM; in experiment [4], 5.6 nM.

Regarding `Cc1nc(Nc2nccc(-c3cc(C#N)c4c(c3)[C@@](C)(CO)CN4)n2)sc1C(=O)N(C)C` [Compound 149], the IC50 in experiment [1] (setting [5]) was roughly 741 nM; in experiment [2] (setting [6]), 50 nM; in experiment [3] (setting [7]) it was 8 nM; in experiment [4], 0.7 nM.

As for `Cc1cc(Nc2nccc(-c3cc(C#N)c4c(c3)[C@@](C)(CO)CN4)n2)nn1CCC1CC1` [Compound 95], the IC50 in experiment [1] (setting [5]) is 871 nM; in experiment [2] (setting [6]), 100 nM; in experiment [3] (setting [7]), 4 nM; in experiment [4], 1.6 nM.

Take `C[C@]1(CO)CNc2c(C#N)cc(-c3cc(Nc4cn(CC(F)F)nc4C4CCOCC4)ncn3)cc21` [Compound 220]: the IC50 was greater than 10000 nM in experiment [1] (setting [5]), 195 nM in experiment [2] (setting [6]), 11 nM in experiment [3] (setting [7]) and 5.6 nM in experiment [4].

As to `Cc1nn(CC(F)F)cc1Nc1nccc(-c2cc(C#N)c3c(c2)[C@@](C)(CO)CN3)n1` [Compound 132], the IC50 was roughly 1860 nM in experiment [1] (setting [5]), 58 nM in experiment [2] (setting [6]), 2 nM in experiment [3] (setting [7]) and 1 nM in experiment [4].

`Cc1cc(Nc2nccc(-c3cc(C#N)c4c(c3)[C@@](C)(CO)CN4)n2)n(CC(=O)N2CCCC2)n1` [Compound 88]: the IC50 in experiment [1] (setting [5]) was greater than 10000 nM; in experiment [2] (setting [6]), 2140 nM; in experiment [3] (setting [7]), 9 nM; in experiment [4], 6.8 nM.

For the compound `CC(C)Cc1nn(C)cc1Nc1nccc(-c2cc(C#N)c3c(c2)[C@@](C)(CO)CN3)n1` [Compound 97], the IC50 was greater than 10000 nM in experiment [1] (setting [5]), 309 nM in experiment [2] (setting [6]), 2 nM in experiment [3] (setting [7]) and 2 nM in experiment [4].

As for `CC(C)CCc1c(Nc2nccc(-c3cc(C#N)c4c(c3)[C@@](C)(CO)CN4)n2)cnn1Cc1cncn1C` [Compound 120], the IC50 is 5010 nM in experiment [1] (setting [5]), 126 nM in experiment [2] (setting [6]), 3 nM in experiment [3] (setting [7]) and roughly 29 nM in experiment [4].

As to `Cc1cc(Nc2nccc(-c3cc(C#N)c4c(c3)C(C)(CO)CN4)n2)n(CC2CCN(CC(=O)N(C)C)CC2)n1` (stereo not shown) [Compound 136], the IC50 was greater than 10000 nM in experiment [1] (setting [5]), 724 nM in experiment [2] (setting [6]), 562 nM in experiment [3] (setting [7]) and 7.2 nM in experiment [4].

For `Cc1cc(Nc2nccc(-c3cc(C#N)c4c(c3)[C@@](C)(CO)CN4)n2)n(CC2(F)CCN(C)CC2)n1` [Compound 131], the IC50 in experiment [1] (setting [5]) is greater than 10000 nM; in experiment [2] (setting [6]), 224 nM; in experiment [3] (setting [7]) it was 166 nM; in experiment [4], 5.9 nM.

For the compound `C[C@]1(CO)CNc2c(C#N)cc(-c3ccnc(Nc4cc(Cl)nn4C[C@@H]4CCOC4)n3)cc21` [Compound 129], the IC50 in experiment [1] (setting [5]) was 2040 nM; in experiment [2] (setting [6]), 251 nM; in experiment [3] (setting [7]) it was 28 nM; in experiment [4], 3.8 nM.

As to `C[C@]1(CO)CNc2c(C#N)cc(-c3ccnc(Nc4cc(Cl)nn4C[C@@H]4COCCO4)n3)cc21` [Compound 126], the IC50 is greater than 10000 nM in experiment [1] (setting [5]), 468 nM in experiment [2] (setting [6]), 170 nM in experiment [3] (setting [7]) and 4.8 nM in experiment [4].

As for `C[C@]1(CO)CNc2c(C#N)cc(-c3ccnc(Nc4cc(Cl)nn4C[C@H]4CCCO4)n3)cc21` [Compound 114], the IC50 stood at 1070 nM in experiment [1] (setting [5]), 151 nM in experiment [2] (setting [6]), 30 nM in experiment [3] (setting [7]) and 6 nM in experiment [4].

With `Cc1c(Nc2nccc(-c3cc(C#N)c4c(c3)[C@@](C)(CO)CN4)n2)cnn1C1CCOCC1` [Compound 72], the IC50 was determined as 724 nM in experiment [1] (setting [5]), 102 nM in experiment [2] (setting [6]), 3 nM in experiment [3] (setting [7]) and 2.9 nM in experiment [4].

As for `CC(C)CCn1nc(CO)cc1Nc1nccc(-c2cc(C#N)c3c(c2)[C@@](C)(CO)CN3)n1` [Compound 110], the IC50 is 2040 nM in experiment [1] (setting [5]), 138 nM in experiment [2] (setting [6]), 4 nM in experiment [3] (setting [7]) and 3 nM in experiment [4].

On to `C[C@]1(CO)CNc2c(C#N)cc(-c3ccnc(Nc4cnn(CCN5CC6COCC6C5)c4N4CCOCC4)n3)cc21` (stereo partly shown) [Compound 200], for which the IC50 is greater than 10000 nM in experiment [1]; 3550 nM in experiment [2]; 20 nM in experiment [3] (L-363, read-out: Inhibition of pIKKα_L-363 (IC50 (nM))); 5.9 nM in experiment [4].

For `Cc1cc(Nc2nccc(-c3cc(C#N)c4c(c3)[C@@](C)(CO)CN4)n2)n(CC(=O)N2CC(F)(F)C2)n1` [Compound 87], the IC50 in experiment [1] (setting [5]) was greater than 10000 nM; in experiment [2] (setting [6]), 3240 nM; in experiment [3] (setting [7]), 34 nM; in experiment [4], roughly 6.5 nM.

Turning to `COCCCn1cc(Nc2nccc(-c3cc(C#N)c4c(c3)[C@@](C)(CO)CN4)n2)c(CCC(C)C)n1` [Compound 105], the IC50 in experiment [1] (setting [5]) was greater than 10000 nM; in experiment [2] (setting [6]), 447 nM; in experiment [3] (setting [7]), 20 nM; in experiment [4], 5.5 nM.

On to `CC(C)CCc1c(Nc2nccc(-c3cc(C#N)c4c(c3)[C@@](C)(CO)CN4)n2)cnn1CCN1CCOCC1` [Compound 125], for which the IC50 was greater than 10000 nM in experiment [1] (setting [5]), 120 nM in experiment [2] (setting [6]), 1 nM in experiment [3] (setting [7]) and 3.5 nM in experiment [4].

`CN(C)C(=O)c1cc(Nc2nccc(-c3cc(C#N)c4c(c3)C(C)(CO)CN4)n2)n(C)n1` (stereo not shown) [Compound 86]: the IC50 was roughly 3720 nM in experiment [1] (setting [5]), 871 nM in experiment [2] (setting [6]), 15 nM in experiment [3] (setting [7]) and 2.6 nM in experiment [4].

For the compound `CN1CCN(Cc2nn(CC(F)F)cc2Nc2nccc(-c3cc(C#N)c4c(c3)[C@@](C)(CO)CN4)n2)CC1` [Compound 185], the IC50 is greater than 10000 nM in experiment [1] (setting [5]), 91 nM in experiment [2] (setting [6]), 20 nM in experiment [3] (setting [7]) and 6 nM in experiment [4].

On to `Cc1cc(Nc2nccc(-c3cc(C#N)c4c(c3)[C@@](C)(CO)CN4)n2)n(CC2CCN(C)CC2)n1` [Compound 83], for which the IC50 in experiment [1] (setting [5]) is 148 nM; in experiment [2] (setting [6]), 111 nM; in experiment [3] (setting [7]) it was 514 nM; in experiment [4] it was 10 nM.

In the case of `C[C@]1(CO)CNc2c(C#N)cc(-c3ccnc(Nc4cc(Cl)nn4CC4CCN(CCF)CC4)n3)cc21` [Compound 134], the IC50 in experiment [1] (setting [5]) came out at 2240 nM; in experiment [2] (setting [6]) it was 47 nM; in experiment [3] (setting [7]), 107 nM; in experiment [4], 4.8 nM.

Take `CC(C)n1nc(C(=O)N2CCCC2)cc1Nc1nccc(-c2cc(C#N)c3c(c2)[C@@](C)(CO)CN3)n1` [Compound 210]: the IC50 was greater than 10000 nM in experiment [1] (setting [5]), 1580 nM in experiment [2] (setting [6]), 71 nM in experiment [3] (setting [7]) and 6.3 nM in experiment [4].

In the case of `C[C@]1(CO)CNc2c(C#N)cc(-c3ccnc(Nc4cn(CC(F)F)nc4OC4CC4)n3)cc21` [Compound 218], the IC50 in experiment [1] (setting [5]) is roughly 7430 nM; in experiment [2] (setting [6]), 38 nM; in experiment [3] (setting [7]), 7 nM; in experiment [4] it was 2.8 nM.

As to `Cc1cc(Nc2nccc(-c3cc(C#N)c4c(c3)[C@@](C)(CO)CN4)n2)nn1CCN1CCOCC1` [Compound 182], the IC50 in experiment [1] (setting [5]) amounted to 1380 nM; in experiment [2] (setting [6]), 151 nM; in experiment [3] (setting [7]), 1 nM; in experiment [4], 1.7 nM.
